We go through two compounds from patent US20250027930A1, “SMALL MOLECULES FOR REPROGRAMING ANTI-TUMOR IMMUNITY OF T CELLS” (THE SCRIPPS RESEARCH INSTITUTE, priority 2021, published 2025).

Assay [1] deals with P14 cells. Briefly: P14 splenocyte in vitro activation, re-stimulation and expansion. It counts as cell-based, mouse. Particulars: 60 mM; for Fold of proliferation, Normalized to W/O: P14 cells.
Assay [2] relates to TILs from B16-OVA tumor. It counts as cell-based, mouse. Particulars: day 7 rapid expansion; vs without sugars. As for the experimental part:
TILs from B16-OVA tumor were isolated on day10 after inoculation, and Tim-3^−TCF/GFP^+ and Tim-3^+TCF/GFP^− in tetramer positive population were collected by live cell sorting (FIG. 15A). Phenotype features of Tim-3^−TCF/GFP^+ (FIG. 15B) and Tim-3^+TCF/GFP^− (FIG. 15C) were analyzed on day 7 after rapid expansion with feeder cells (TILs/feeder cell: 1/200) in the presence or absence of sugars.
To investigate which population that sugars mainly changed on T cells, B16-OVA cancer cells (7×10^5 cells) were subcutaneously inoculated into the left or right flank of TCF7^GFP mice expressing an EGFP fluorescent reporter from the endogenous Tcf7 locus, which enable us to track the expression of TCF-1 in live cells.

Assay [3] concerns OT-1 splenocytes. Briefly: Apoptosis (Annexin V) and IL-2 production of OT-1 splenocytes stimulated without IL-2. It counts as cell-based, mouse. Particulars: OVA257-264 500 nM without IL-2, 5 days. As for the experimental part: (§1) Naïve splenocytes from OT-1 mice were stimulated in vitro with OVA257-264 (500 nM) and IL-2 (60 IU/mL) in the presence or absence of an added compound for 3 days at a density of 1 million/mL (100 uL/well in 96/well plate), then expanded for 4 days. On day 7, PD-1, Tim3 and TCF-1 expressions were assessed by flow cytometry by staining cells with anti-CD8a (PerCP-Cy5.5), anti-Tim3 (BV421) and anti-TCF-1 (AF488) antibodies. For adoptive transfer, 0.6M B16-OVA cells (6×10^5) were inoculated subcutaneously 3 to 5 days before transfer in C57BL/6. On the day of adoptive transfer, mice were irradiated with 5 Gy X-ray, randomized according to tumor size, and intravenously injected with 0.2-0.3M of CD8+OT-1 T cells (2×10^5) expanded under different conditions, followed by administration of 50000 IU IL-2 every 12 h for four days. In the control group, mice were injected with cell-free vehicle only. For assessment of adoptive transfer of OT-1 CD8+ T cells activated and expanded by contacting the cells with fructose, on day 9 after transfer, anti-PD-1 (100 ug/mouse) was administered to the mice that had received T cell transfer. For assessment of adoptive transfer of OT-1 CD8+ T cells activated and expanded by contacting cells with Neu5Ac, on day 14 and day 21 after transfer, anti-PD-1 (100 ug/mouse) was administered to the mice that had received T cell transfer. The tumor growth was monitored every 3 to 4 days by measuring tumor size. Percent survival was also monitored and recorded within a period of 40 days post treatment. To evaluate tumor infiltrating OT-1 T cells, 0.6M B16-OVA cells (6×10^5) were inoculated subcutaneously 3 to 5 days before transfer in C57BL/6. On the day of adoptive transfer, mice were irradiated with 5 Gy X-ray, randomized according to tumor size, and intravenously injected with 0.2-0.3M of CD8+OT-1 T cells (2×10^5) expanded under different conditions, followed by administration of 50000 IU IL-2 every 12 h for four days. Tumors were then isolated and assessed for percentage of OT-I T cells from the total CD8+ T cells and OT-1 T cell number per gram of tumor tissue. To evaluate apoptosis, Naïve OT-1 splenocytes were stimulated by OVA257-264 (500 nM) without IL-2 in the presence of absence of sugars for 5 days followed by using Annexin V Apoptosis detection kit (Biolegend). […] To evaluate other cellular characteristics, naïve OT-1 splenocytes were stimulated by OVA257-264 (500 nM) with IL-2 (60 IU/mL) in the presence or absence of sugars for 7 or 8 days. On day 7 or 8 cells were taken and analyzed by assessment of ROS, NADPH/NADP+ ratio, and GSH/GSSG ratio.

The test system of assay [4] is OT-1 splenocytes. Briefly: ROS, NADPH/NADP+ ratio and GSH/GSSG ratio of OT-1 splenocytes. Particulars: day 7 or 8, with IL-2; vs T cells not treated with sugar. In kind it is cell-based, mouse. As for the experimental part: as §1
For assay [5], the system named is MC38 TSA-reactive CD8+ TILs. Description: Rapid expansion of TSA-reactive CD8+ TILs from MC38 tumors. In kind it is cell-based, mouse. As for the experimental part: Sugars were added at the beginning or during the expansion of the TILs, and kept till the end of expansion. On expansion day 9, phenotypes of the expanded T cells were assessed, and the cells were used for adoptive transfer (FIG. 6E). For adoptive transfer, 0.5 million cells (B16-OVA or MC38) were inoculated subcutaneously on each mouse on day 0, Listeria monocytogenes-OVA (LM-OVA) infection 0.5 million CFU/mice on day 1, and blood analysis was recorded on day 7.

Assay [6] relates to B16-OVA tumor. In kind it is in vivo, mouse. Particulars: treated T cells transferred to B16-OVA mice. As for the experimental part:
as §1

In assay [7] the test system is OT-1 cells. Briefly: OT-I-Tcf7GFP splenocyte screen: proliferation and Tim3−TCF-1+ ratio. Particulars: Day7, 60 mM. It counts as cell-based, mouse. As for the experimental part: Cell number was recorded on day 3 and day 7. On day 7, cells were stained with anti-CD8a (PerCP-Cy5.5) and anti-Tim3 (BV421) antibodies for flow cytometry or plate reader analysis.
Because TCF1 expression positively correlates with T cell stemness, the greater signal of EGFP a T cell expresses, the less differentiated the T cell is. Furthermore, if the compound also facilitates T cells proliferation, there would be more T cells per well in comparison to the untreated control. Therefore, a compound that not only maintains TCF-1 expression but also facilitates T cell growth would produce the strongest green fluorescence intensity. […] GlcA stands for glucuronic acid.

The subject of assay [8] is OT-I splenocytes. Briefly: OT-I splenocyte culture with KRAS (G12C) inhibitors 9/12 and analogues. The settings on record: added D0 at 5 uM or D3 at 5 uM or 10 uM, kept till day 7. In kind it is cell-based, mouse. As for the experimental part: We performed additional studies to examine the observed activities of KRAS (G12C) inhibitors in modulating T cell properties. First, OT-I splenocytes were activated with OVA257-264 peptide (500 nM) for 3 days in the presence of 60 IU/mL IL-2 and cultured for another 7 days. Inhibitor 9 (i9) or inhibitor 12 (i12) was added on Day0 (D0) upon activation at 5 uM and the concentration was kept till day 7 or added on Day3 (D3) after activation at 5 uM or 10 uM and the concentration was kept till day 7 for analysis.
Other than inhibitors 9 and 12, we also tested activities of two analogues of these KRAS (G12C) inhibitors. The analogues, Z7 and Z6, are derived from Inhibitor 9 and Inhibitor 12, respectively. They have an alkynyl group for click reaction which is used for ABPP analysis to find the targets of the inhibitors (FIG. 18A). In the studies, OT-I splenocytes were activated with OVA257-264 peptide (500 nM) for 3 days in the presence of 60 IU/mL IL-2 and cultured for another 7 days. 5 uM […], i9, z6 or z7 were added on Day0 (DO) upon activation.
As noted above, Inhibitor 9 and Inhibitor 12 have a cysteine-reactive group ([…] and acrylamide) that allows covalent binding of i9 and i12 to a cysteine residue in proteins. We further tested two analogue compounds, ZT-1 and ZT-2, that are not capable of forming the covalent binding. […] Cell number was recorded on day 5 and day 7. […]

The test system of assay [9] is anti-GD2 CAR-T cells. Briefly: Anti-GD2 CAR-T cell expansion with Inhibitor 9/12, phenotype and cell number.
Setting [10] is: Inhibitor 9 at 2 or 3 uM, Inhibitor 12 at 1 or 2 uM, day 15.

For the compound `CC(=O)N[C@H]1C(O)O[C@H](CO)[C@@H](O)[C@@H]1O` (stereo partly drawn) [GlcNAc, N-Acetylglucosamine], the figures for the “Fold of proliferation, Normalized to W/O” value in assay [1] (Day6) and in assay [1] (Day9) were 2.47 fold and 1.44 fold, respectively. Further, the “Tim3^−TCF-1^+ ratio of CD8^+ T cells (%)” value was determined as 89.2% in [1] (Day6, w/o 55.0); 21.2% in [1] (Day9, w/o 3.5); 28.8% in assay [7] (w/o 2.6). Also, the “maintenance of progenitor exhausted features of sorted Tim-3-TCF-GFP^+ TILs” value in [2] was “maintain more Tim-3^−TCF/GFP^+ cells”. Also, the “viability and apoptotic characteristics” value in assay [3] (vs T cells not treated with sugar) was “enhanced viability and differential apoptotic characteristics”. Also, the “production of IL-2” value in [3] (vs no sugar) was “significantly greater”. Also, the GSH/GSSG ratio result in [4] is recorded as “greater”. The “NADPH/NADP+ ratio” value in assay [4] is given as “greater”. Besides, in [4], the ROS result is recorded as “significantly less”. In assay [5], the “cell surface anti-CLA (Cutaneous Lymphocyte-associated Antigen) staining” value is on record as “significant increase”. In addition, in assay [6], the “tumor infiltrating OT-1 T cell numbers” value was “increased”. The activity at 60000 µM in assay [7] (Mus musculus, Splenocyte, 168 h, OT-1 cells, read-out: Proliferation fold, Normalized to W/O) was determined as 145%.
With K-Ras(G12C) Inhibitor 9, the “expression of inhibitory receptors (Tim-3+PD-1)” value in assay [8] is “decreased”. The “proliferation of CAR-T cells” value in assay [9] (2 or 3 uM) was “facilitated the proliferation”. Besides, in assay [9] (setting [10]), the “expression of inhibitory receptors (PD-1, LAG3, Tim-3 and CD39) of anti-GD2 CAR-T cells” value is listed as “decreased the expression of inhibitory receptors”; the “progenitor features of anti-GD2 CAR-T cells” value was “increased progenitor features”.
